In assay [1] the target is T1, Bifunctional epoxide hydrolase 2 (Homo sapiens, UniProt P34913).
T1 sequence (P34913 whole entry): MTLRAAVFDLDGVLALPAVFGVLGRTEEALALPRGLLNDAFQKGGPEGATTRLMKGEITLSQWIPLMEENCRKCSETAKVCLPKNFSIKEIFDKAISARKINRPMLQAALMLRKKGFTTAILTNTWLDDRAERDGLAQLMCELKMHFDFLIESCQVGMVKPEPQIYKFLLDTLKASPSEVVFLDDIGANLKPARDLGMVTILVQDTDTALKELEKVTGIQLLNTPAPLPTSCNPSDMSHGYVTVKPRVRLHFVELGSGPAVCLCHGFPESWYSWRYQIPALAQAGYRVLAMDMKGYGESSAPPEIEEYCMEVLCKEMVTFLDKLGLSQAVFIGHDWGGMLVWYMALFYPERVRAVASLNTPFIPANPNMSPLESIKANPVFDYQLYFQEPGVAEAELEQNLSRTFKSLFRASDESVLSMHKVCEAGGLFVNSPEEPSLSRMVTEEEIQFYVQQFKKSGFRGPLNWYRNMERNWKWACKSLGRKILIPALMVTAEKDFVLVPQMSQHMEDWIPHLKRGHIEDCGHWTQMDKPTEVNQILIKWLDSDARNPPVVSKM
Nature of the assay: Inhibition of His-tagged human recombinant soluble epoxide hydrolase pre-incubated for 15 mins before Epoxy-fluor7 substrate addition and measured after 20 mins by fluorescence based assay.

Assay [2] has as its target T2, Estrogen receptor (Homo sapiens, UniProt P03372).
T2 sequence (P03372 whole entry): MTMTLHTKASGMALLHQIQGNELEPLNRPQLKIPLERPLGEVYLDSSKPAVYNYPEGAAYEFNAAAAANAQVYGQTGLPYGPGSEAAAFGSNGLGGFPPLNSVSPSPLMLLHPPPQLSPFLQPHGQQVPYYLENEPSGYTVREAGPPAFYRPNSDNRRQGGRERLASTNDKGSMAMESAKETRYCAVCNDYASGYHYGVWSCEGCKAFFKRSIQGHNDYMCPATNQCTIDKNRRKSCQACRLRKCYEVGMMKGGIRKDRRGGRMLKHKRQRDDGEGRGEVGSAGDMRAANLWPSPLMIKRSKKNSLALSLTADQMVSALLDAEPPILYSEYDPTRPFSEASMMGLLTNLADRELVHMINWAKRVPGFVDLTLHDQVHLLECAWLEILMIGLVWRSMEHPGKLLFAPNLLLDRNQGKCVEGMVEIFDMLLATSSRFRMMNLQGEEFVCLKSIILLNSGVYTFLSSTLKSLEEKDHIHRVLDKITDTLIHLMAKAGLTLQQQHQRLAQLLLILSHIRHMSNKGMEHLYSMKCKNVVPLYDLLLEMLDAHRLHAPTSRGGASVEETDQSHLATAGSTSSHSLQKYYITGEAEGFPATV
Nature of the assay: Inhibition of His-tagged human ERalpha pre-incubated for 15 mins before fluorescent ligand addition and measured after 1 hr by fluorescence polarization assay.

In assay [3] the target is Mast/stem cell growth factor receptor Kit (Homo sapiens, UniProt P10721). Nature of the assay: Inhibition of recombinant c-Kit (unknown origin) incubated for 1 hr by ADP-Glo assay. (In ADP-Glo the light output rises with the ADP produced.)

Molecules are shown by their SMILES.

Mast/stem cell growth factor receptor Kit, sequence (P10721 whole entry): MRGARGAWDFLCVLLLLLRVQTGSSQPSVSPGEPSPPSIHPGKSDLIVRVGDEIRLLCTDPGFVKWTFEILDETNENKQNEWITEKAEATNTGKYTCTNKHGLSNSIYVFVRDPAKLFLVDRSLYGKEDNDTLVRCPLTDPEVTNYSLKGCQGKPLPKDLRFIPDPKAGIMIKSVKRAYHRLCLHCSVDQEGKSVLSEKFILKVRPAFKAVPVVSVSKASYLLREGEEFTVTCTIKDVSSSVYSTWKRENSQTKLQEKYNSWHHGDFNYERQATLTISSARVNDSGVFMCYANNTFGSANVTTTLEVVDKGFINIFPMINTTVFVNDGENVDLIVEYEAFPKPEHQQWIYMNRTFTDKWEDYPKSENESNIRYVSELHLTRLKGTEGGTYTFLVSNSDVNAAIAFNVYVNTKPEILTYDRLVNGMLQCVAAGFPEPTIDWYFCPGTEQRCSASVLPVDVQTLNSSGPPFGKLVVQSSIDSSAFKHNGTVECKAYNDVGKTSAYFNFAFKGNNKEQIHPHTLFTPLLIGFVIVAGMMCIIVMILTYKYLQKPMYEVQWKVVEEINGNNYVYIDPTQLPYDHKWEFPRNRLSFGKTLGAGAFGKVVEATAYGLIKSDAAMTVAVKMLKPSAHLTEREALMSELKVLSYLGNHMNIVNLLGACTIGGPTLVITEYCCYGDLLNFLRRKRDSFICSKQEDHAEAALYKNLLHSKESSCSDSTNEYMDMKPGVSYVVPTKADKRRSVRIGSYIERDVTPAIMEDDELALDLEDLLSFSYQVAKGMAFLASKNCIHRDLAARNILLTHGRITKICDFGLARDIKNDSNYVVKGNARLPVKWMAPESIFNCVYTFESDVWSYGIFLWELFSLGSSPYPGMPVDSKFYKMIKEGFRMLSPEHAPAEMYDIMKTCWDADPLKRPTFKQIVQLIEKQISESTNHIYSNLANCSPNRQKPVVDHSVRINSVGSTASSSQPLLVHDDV

Take `O=C(Nc1ccc(Sc2ccccc2Cl)cc1)C1CCN(C(=O)c2ccc(F)cc2)CC1`: the IC50 in assay [1] worked out at 1 nM.

Regarding `CN1c2ccccc2C2(C)CCCC3Cc4cc(Br)cc(Br)c4OC312` (stereo unspecified), 20 nM corresponded to half-maximal inhibition in assay [2] (IC50).

With `CC(OC(=O)c1ccc2nc(N)sc2c1)C(=O)Nc1ccc(C(C)(C)C)cc1` (stereo unspecified), the IC50 in assay [3] was 9 nM.

`Cc1ccccc1C(OC(c1ccccc1C)c1ccccc1C)c1ccccc1C` showed an IC50 in assay [2] of 8 nM.

Take `O=C(NC1CCC2CCCC2C1)C1CCCN(S(=O)(=O)c2cccs2)C1` (stereo unspecified): the IC50 in assay [1] was found to be 2 nM.

For `CC(C)COC(=O)N1CCN(C(=O)C=CC(=O)Nc2ccc(Cl)cc2)CC1`, the IC50 in assay [3] was determined as 21 nM.

For orientation: IC50 means the concentration needed to halve the response being measured.

The values above are taken from ChEMBL document CHEMBL4725248, “Machine Learning on DNA-Encoded Libraries: A New Paradigm for Hit Finding” (J Med Chem, 2020).
